Here are results for three molecules from patent US7547676B2, “Antagonist peptides to the C5A chemotactic function of vitamin D binding protein” (The Research Foundation of State University of New York, priority 2004, dated 2009).

The test system of series [1] is neutrophils. Nature of the series: Neutrophil chemotaxis assay, C5a co-chemotactic activity of DBP. The format is cell-based, human. Also noted: effect on co-chemotactic activity of DBP, dose-response: dose or concentration left out as unconfirmed. The text has this:
Isolation of human neutrophils Neutrophils, serum, and plasma were isolated from the venous blood of healthy, medication-free, paid volunteers who gave informed consent. The Institutional Review Board of Stony Brook University approved this procedure. These procedures have been described in detail previously (Kew et al., 1995a).
Neutrophil chemotaxis assay Cell movement was quantitated using a 48 well microchemotaxis chamber (Neuroprobe, Cabin John, Md.) and 5.0 μm pore size cellulose nitrate filters (purchased from Neuroprobe) as previously described (Kew et al., 1995a). Cell suspensions and chemotactic factors were prepared and/or diluted in the chemotaxis assay buffer (Hank's balanced salt solution supplemented with 10 mM HEPES (pH 7.4) and 1% bovine serum albumin). Cell movement was quantitated microscopically by measuring the distance in microns (μm) that the leading front of cells had migrated into the filter according to the method described by Zigmond and Hirsch (1973). In each experiment, five fields per duplicate filter were measured at 400× magnification.

The target of series [2] is T1, DBP (Homo sapiens, UniProt P02774).
T1 sequence (P02774 17-474): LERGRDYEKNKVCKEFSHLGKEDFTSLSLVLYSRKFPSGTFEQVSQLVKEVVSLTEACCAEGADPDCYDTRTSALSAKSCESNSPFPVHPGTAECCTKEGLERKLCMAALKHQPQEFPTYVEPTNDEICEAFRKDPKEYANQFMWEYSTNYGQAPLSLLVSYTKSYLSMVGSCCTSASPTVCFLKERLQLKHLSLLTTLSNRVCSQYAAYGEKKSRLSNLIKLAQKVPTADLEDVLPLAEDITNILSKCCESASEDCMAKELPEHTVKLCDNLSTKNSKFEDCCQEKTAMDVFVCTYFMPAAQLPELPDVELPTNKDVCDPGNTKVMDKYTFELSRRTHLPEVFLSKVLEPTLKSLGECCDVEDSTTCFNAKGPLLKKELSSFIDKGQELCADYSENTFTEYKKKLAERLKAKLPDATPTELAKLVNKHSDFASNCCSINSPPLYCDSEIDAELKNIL
The following applies: Cooke and Haddad, 1989; cited from earlier work.

For series [3], the system named is Alkaline phosphatase activity on the plasma membrane of viable neutrophils. Nature of the series: Neutrophil alkaline phosphatase assay (DiFMUP). The following applies: 5×10^6 cells pretreated with 10 nM 1,25(OH)2D3 or 10 μM SOV; untreated 11,107±1335 units. Format: cell-based, human. Here is the method:
Neutrophil alkaline phosphatase assay Alkaline phosphatase activity on the plasma membrane of viable neutrophils was measured using the fluorescent substrate 6,8-difluoro-4-methylumbelliferyl phosphate (DiFMUP) and the EnzChek Phosphatase Assay Kit (Molecular Probes, Eugene, Oreg.). Neutrophils (5×10^6 cells) were suspended in 50 μl of 0.1M sodium acetate (pH 5.0) and were immediately added to microtiter plates containing 50 μl of 0.2mM DiFMUP substrate and incubated for 5 min at 22° C. in the dark. A standard curve was generated using known amounts of the fluorescent compound 6,8-difluoro-7-hydroxy-4-methylcoumarin. Fluorescence was measured at 358 nm excitation and 455 nm emission using a SpectraMax M2 microtiter plate reader (Molecular Devices, Sunnydale, Calif.).

Series [4] deals with neutrophils. Nature of the series: Neutrophil viability. Format: cell-based, human. The conditions noted are these: 10 μM SOV.
Series [5] deals with differentiated HL-60 cells. Nature of the series: Chemotaxis assay, differentiated HL-60 cells responding to C5a, C5a plus DBP or ZAS. Format: cell-based, Human. The conditions noted are these: differentiated HL-60 cells; 100 pM C5a (FIG. 1: 25-200 pM) plus 50 nM of indicated DBP, 60 min at 37° C. Here is the method: Cells (6×10^6/ml) were resuspended in chemotaxis buffer and treated either with chemotaxis buffer (control), 1 μM of peptide 1 (130-152), or 1 μM of peptide 2 (150-172) for 30 min at room temperature. The chemotactic response of differentiated HL-60 cells to 100 pM C5a alone, C5a plus 50 nM full-length natural DBP or 1% zymosan-activated serum (ZAS) was measured for 60 minutes at 37° C. Numbers represent net cell movement in 60 min, mean±SEM of 3 experiments.
(§1) Cells and cell culture: Human promyelocytic cell line HL-60 was obtained from ATCC (Rockville, Md.) and cultured in RPMI 1640 medium supplemented with 10% FBS. Differentiation of HL-60 cells was initiated with 250 μM Bt2cAMP for 48 hours.
Chemotaxis assay. Chemotaxis was performed as described previously (see Kew, R. R. et al., J. Leukoc. Biol. 58, 55-58 (1995)). In brief, 35 μl of C5a (0.01 to 1 nM) in the chemotaxis buffer (HBSS with 1% BSA, 10 mM HEPES) were placed in duplicate in the lower chamber of a 48-well chamber (Neuroprobe, Md.). The lower compartments were covered with a 5 μm pore cellulose nitrate filter and then 50 μl of the cell suspension (2.5×10^5/well) was pipetted into the upper compartments. The chemotactic chamber was incubated for 1 hour at 37° C. in a humidified incubator with 5% CO2. Following incubation, the filter was fixed, stained and mounted on a microscope slide. Cell movement was measured as the distance in microns that the leading front of the cells had migrated into the filter (see Zigmond, S. et al., J. Exp. Med. 137, 387 (1973)).

The subject of series [6] is differentiated HL-60 cells. Put plainly: Ligand-induced calcium mobilization (Fluo-3 AM) in differentiated HL-60 cells. Format: cell-based, Human. The following applies: differentiated HL-60 cells incubated 30 min with 50 nM of indicated DBP, then C5a. Here is the method:
as §1
Ligand-induced calcium mobilization. Calcium mobilization studies were performed using the Fluo-3 AM probe as described previously (see Merritt, J. E. et al., Biochem. J. 269, 513-519 (1990)). Differentiated HL-60 cells (1×10^7 cells/ml) were resuspended in HBSS-1% BSA containing 2 μM Fluo-3 AM (Molecular Probes, Eugene, Oreg.) and incubated at 37° C. for 40 minutes. Cells incubated without the dye were used as a control to measure autofluorescence (Fmin). Following the dye uptake, cells were washed twice then suspended at 5×10^6 cells/ml in HBSS containing 1% BSA. Half of the cell suspension was treated with 50 nM DBP for 30 min at room temperature, the other half served as the untreated control. For each measurement, 400 μl of cell suspension (with or without DBP) was added to a cuvette and stimulated with various concentrations of purified C5a at room temperature (22-24° C.). Fluorescence was then measured immediately using a Perkin-Elmer LS-5 fluorometer at 505 nm excitation, 526 nm emission for Fluo-3 AM. Fmax was measured by treating labeled cells with 60 μM digitonin. Intracellular free calcium concentrations were calculated using the following formula: (Ca^2+)=Kd (F−Fmin)/(Fmax−F), where Kd=325 nM for Fluo-3 according to manufacturer (Molecular Probes).
For orientation: Calcium assays in cells follow changes in intracellular calcium, usually with a dye or a luminescent sensor.

For series [7], the target named is T2, G-actin (Oryctolagus cuniculus, UniProt P68135).
T2 construct: G-actin was purified from rabbit skeletal muscle; from tissue; host or cells: rabbit skeletal muscle
Put plainly: G-actin binding detected by non-denaturing PAGE. The conditions noted are these: non-denaturing PAGE (data not shown). Here is the method:
Functional characterization of reDBP. The capacity of reDBP to bind 25(OH)-vitamin D3 was measured to determine if the expressed proteins could functionally bind a physiological ligand. […] The ability of reDBPs to enhance C5a-mediated chemotaxis and Ca^2+ flux in differentiated HL-60 cells was determined next.

Residue numbers refer to the chain shown, from its start.

On to `C=C1CC[C@H](O)C/C1=C/C=C1\CCC[C@]2(C)[C@@H]([C@H](C)CCCC(C)(C)O)CC[C@@H]12` [25(OH)D3], for which, in series [1] (bound to DBP), the “effect on co-chemotactic activity of DBP, dose-response” value is reported as “no effect on co-chemotactic activity”. Also, the “effect on co-chemotactic activity of DBP (neutrophil chemotaxis toward C5a)” value in series [1] (ligand bound to DBP, 1,25(OH)2D3 100 nM) was “did not alter its ability to enhance neutrophil chemotaxis toward C5a”. Also, the “affinity for DBP relative to 1,25(OH)2D3” value in series [2] was 10 fold.
`[Na+].[Na+].[Na+].[O]=[V]([O-])([O-])[O-]` [SOV, sodium orthovanadate]: the “cells ability to migrate towards C5a plus DBP” value in series [1] (SOV alone) is recorded as “no effect”. The “reversal of the inhibitory effect of 1,25(OH)2D3 on the C5a co-chemotactic activity of DBP” value in series [1] (neutrophils pretreated with 10 μM SOV) is “completely reverses the inhibitory effect”. Further, the “neutrophil AP activity” value in series [3] is listed as 667±111 units. In addition, the cell viability result in series [4] is recorded as “did not alter cell viability”.

B1: full-length reDBP: E. coli expressed full-length human DBP (Gc-2 allele), residues 1-458 (protein)
chain: T1 sequence (P02774 17-474) with T420K, H429R
Consider B1, for which the “enhancement of C5a-mediated chemotaxis (net cell movement)” value in series [5] is listed as “significantly enhanced”. The “enhancement of intracellular Ca2+ flux in response to C5a” value in series [6] is reported as “significantly enhanced”. Also, the G-actin binding entry in series [7] was “bound G-actin in a 1:1 molar complex”.
